Reference: patent US20120165319A1, “INHIBITORS OF INTERLEUKIN-1 BETA CONVERTING ENZYME” (VERTEX PHARMACEUTICALS INCORPORATED, priority 1995, published 2012)
Values joined by “and” are separate entries in the source; they are usually repeats but may differ in a detail not shown here. Equal entries are not always repeated. “Also recorded” adds a separate entry of the source. Where two headings read alike, the source gives them in different places.

How the values were obtained:
TX = target: T1, TX (Homo sapiens, UniProt P49662); assay: Inhibition of ICE homologs: TX; format: biochemical; settings: for Ki: ICE substrate, conditions identical to ICE (Table 1); for kinact (TX): second-order rate constant for inactivation, irreversible inhibitors (Table 2)
T1 construct: made in house; host or cells: Spodoptera frugiperda (Sf9) insect cells, recombinant baculovirus (pVL1393/TX)
T1 sequence (P49662 81-270 limits assumed): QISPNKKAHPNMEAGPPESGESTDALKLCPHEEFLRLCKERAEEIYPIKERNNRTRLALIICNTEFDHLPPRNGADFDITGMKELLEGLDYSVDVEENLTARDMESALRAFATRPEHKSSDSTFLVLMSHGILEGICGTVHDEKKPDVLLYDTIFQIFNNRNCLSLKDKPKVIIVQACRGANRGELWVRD
T1 sequence (P49662 290-377 limits assumed): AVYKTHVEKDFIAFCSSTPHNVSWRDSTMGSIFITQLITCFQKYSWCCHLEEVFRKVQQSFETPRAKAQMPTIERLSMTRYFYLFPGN
Excerpt: Expression of TX in insect cells using a baculovirus expression system. We have subcloned Tx cDNA (Faucheu et al., supra 1995) into a modified pVL1393 transfer vector, co-transfected the resultant plasmid (pVL1393/TX) into insect cells with viral DNA and identified the recombinant baculovirus. After the generation of high titer recombinant virus stock, the medium was examined for TX activity using the visible ICE assay. […] ICE was used as a standard in the assay.
The selectivity of a panel of reversible inhibitors for ICE homologs is depicted in Table 1. ICE enzyme assays were performed according to Wilson et al (supra 1994) using a YVAD-AMC substrate (Thornberry et al, supra 1992). Assay of TX activity was performed using the ICE substrate under identical conditions to ICE. Assay of CPP32 was performed using a DEVD-AMC substrate (Nicholson et al., supra 1995). In general, there is low selectivity between ICE and TX for a wide range of scaffolds. None of the synthetic ICE compounds tested are effective inhibitors of CPP32.
Second-order rate constants for inactivation of ICE and ICE homologs with selected irreversible inhibitors are presented below (Table 2). The irreversible compounds studied are broad spectrum inhibitors of ICE and its homologs. Some selectivity, however, is observed with the irreversible compounds comparing inhibition of ICE and CPP32.

CPP32 = target: T2, CPP32 (Homo sapiens, UniProt P42574); assay: Inhibition of ICE homologs: CPP32 (DEVD-AMC substrate); settings: for kinact (CPP32): second-order rate constant for inactivation, irreversible inhibitors (Table 2)
T2 sequence (P42574 29-175 limits assumed): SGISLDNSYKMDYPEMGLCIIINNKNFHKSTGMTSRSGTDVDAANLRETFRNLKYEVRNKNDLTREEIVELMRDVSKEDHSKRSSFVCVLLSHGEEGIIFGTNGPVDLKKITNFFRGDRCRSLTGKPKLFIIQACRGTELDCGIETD
T2 sequence (P42574 176-277 limits assumed): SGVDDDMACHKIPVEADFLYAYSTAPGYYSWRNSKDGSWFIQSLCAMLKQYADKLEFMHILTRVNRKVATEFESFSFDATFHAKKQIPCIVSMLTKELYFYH

[1] = Pharmacokinetic studies in the mouse (i.v. clearance, plasma levels); format: in vivo; settings: 25 mg/kg; for clearance: CD-1, plasma
Outline: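 Male CD-1 mice (26-31 g) given 25 mg/kg i.v. via tail vein in 0.02M Tris (2.5 mg/ml), groups of 5 per timepoint from 2 to 120 min. Heparinized plasma deproteinated (perchloric acid or acetonitrile) and analysed by reverse-phase HPLC with UV or MS detection against plasma-spiked calibration (0.5 to 50 μg/ml).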

[2] = test system: IL-1β production, LPS-challenged mice; assay: In vivo acute assay for efficacy as anti-inflammatory agent: LPS-induced IL-1β production in mice; parameters: species or system mouse; settings: for percent inhibition of IL-1β production / inhibition at 50 mg/kg: compound PO; for inhibition at 50 mg/kg: po, read-out: percent inhibition of IL-1β production
Outline: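 CD1 mice (n=6) were challenged with LPS 20 mg/kg IP and given compound IP in olive oil:DMSO:ethanol (90:5:5) 1 h after LPS, or at the time of challenge for some analogs. Blood was taken 7 h after LPS and serum IL-1β was measured by ELISA. Oral gavage at 50 mg/kg was also tested.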

[3] = LPS challenged mice, PO, 50 mg/kg, * = values obtained in subsequent assays (Table 4)
[4] = Mus musculus, 2 h, LPS challenged mice, 50 mg/kg, administered −2 h relative to time of LPS challenge
[5] = Mus musculus, 0 h, LPS challenged mice, 50 mg/kg, administered 0 h relative to time of LPS challenge

Ki (TX) | Ki (CPP32) | SMILES | clearance ([1]; iv, mouse) | inhibition at 50 mg/kg [2, 4] | melting point | other results
40 ± 7 nM | > 1000 nM | O=C(O)C[C@H](NC(=O)[C@@H]1CCCN2C(=O)CC[C@H](NC(=O)CCc3ccccc3)C(=O)N12)C(=O)c1ncc(-c2c(Cl)cccc2Cl)o1 [Compound 137] | – | – | – | –
55 ± 9 nM | > 1000 nM | COc1cccc2nc(C(=O)[C@H](CC(=O)O)NC(=O)[C@@H]3CCCN4C(=O)CC[C@H](NC(=O)CCc5ccccc5)C(=O)N34)oc12 [Compound 135a] | > 100 mL/min/kg | – | – | –
– | – | CS(=O)(=O)N[C@H]1CCC(=O)N2CCC[C@@H](C(=O)N[C@@H](CC(=O)O)C(=O)COC(=O)c3c(Cl)cccc3Cl)N2C1=O [Compound 138] | 116 mL/min/kg | – | – | kinact (TX) (TX): 150,000 M^−1 s^−1; kinact (CPP32) (CPP32): 550,000 M^−1 s^−1
– | – | CC(=O)Nc1cccc(C(=O)N[C@H]2CCC(=O)N3CCC[C@@H](C(=O)N[C@H](C=O)CC(=O)O)N3C2=O)c1 [Compound 450, [3S(1S,9S)]3-{9-[(3-Acetamido)benzamido]-6,10-dioxo-1,2,3,4,7,8,9,10-octahydro-6H-pyridazino[1,2-a][1,2]diazepine-1-carboxamido}-4-oxobutanoic acid] | 18 mL/min/kg | 0% | 175 to 179 °C | inhibition at 50 mg/kg [2, 5]: 35%
– | – | O=C[C@H](CC(=O)O)NC(=O)[C@@H]1CCCN2C(=O)CC[C@H](NC(=O)c3cc4ccccc4[nH]3)C(=O)N12 [Compound 475, [3S(1S,9S)]3-[6,10-Dioxo-9-(indol-2-oylamino)-1,2,3,4,7,8,9,10-octahydro-6H-pyridazino[1,2-a][1,2]diazepine-1-carboxamido]-4-oxobutanoic acid] | 31 mL/min/kg | 0% | 150 °C | inhibition at 50 mg/kg [2, 5]: 15%
– | – | O=C(O)C[C@H](NC(=O)[C@@H]1CCCN2C(=O)CC[C@H](NC(=O)OCc3ccccc3)C(=O)N12)C(=O)COC(=O)c1c(Cl)cccc1Cl [Compound 217d, [3S(1S,9S)]3-(9-Benzyloxycarbonylamino-6,10-dioxo-1,2,3,4,7,8,9,10-octahydro-6H-pyridazino[1,2-a][1,2]-diazepine-1-carboxamido)-5-(2,6-dichlorobenzoyloxy)-4-oxopentanoic acid] | – | – | 85 to 110 °C | kinact (TX) (TX): 250,000 M^−1 s^−1; kinact (CPP32) (CPP32): 150,000 M^−1 s^−1
57 ± 13 nM | > 1000 nM | O=C(O)C[C@H](NC(=O)[C@@H]1CCCN2C(=O)CC[C@H](NC(=O)CCc3ccccc3)C(=O)N12)C(=O)CSCc1ccccc1Cl [Compound 125b, [3S(1S,9S)]-3-(6,10-dioxo-1,2,3,4,7,8,9,10-octahydro)-9-(3-phenylpropionyl-amino)-6H-pyridazine[1,2-a][1,2]diazepine-1-carboxamido-5-(2-chlorophenyl-methylthio)-4-oxopentanoic acid] | – | – | 76 to 80 °C | –

SMILES | Ki (TX) | Ki (CPP32) | clearance ([1]; iv, mouse) | inhibition at 50 mg/kg [2, 4] | melting point | other results
O=C[C@H](CC(=O)O)NC(=O)[C@@H]1CCCN2C(=O)CC[C@H](NC(=O)c3ccccc3)C(=O)N12 [Compound 214e, [3S(1S,9S)]3-(9-Benzoylamino-6,10-dioxo-1,2,3,4,7,8,9,10-octahydro-6H-pyridazino[1,2-a][1,2]-diazepine-1-carboxamido)-4-oxobutanoic acid] | 7 ± 1.1 nM | > 1000 nM | 23 mL/min/kg | 39% | – | IP % Inhibition ([2]; % inhibition of IL-β production, LPS-challenged mice, IP, 50 mg/kg (Table 3)): 78%; POS Inhibition ([2]; % inhibition of IL-β production, LPS-challenged mice, PO, 50 mg/kg (Table 3)): 75%; Inhibition of IL-1β Production, compound administered 0 hr relative to LPS challenge [2, 3]: 48* % and 80* %; Inhibition of IL-1β Production, compound administered −1 hr relative to LPS challenge [2, 3]: 44* %; Inhibition of IL-1β Production, compound administered −2 hr relative to LPS challenge [2, 3]: 43* % and 39* %; percent inhibition of IL-1β production ([2]; LPS challenged mice, 50 mg/kg, administered 0 h relative to time of LPS challenge): 70% and 48%; percent inhibition of IL-1β production ([2]; LPS challenged mice, 50 mg/kg, administered −2 h relative to time of LPS challenge): 43%; inhibition of IL-1β secretion/production after IP administration ([2]; LPS-challenged CD1 mice, IP injection one hour after LPS, result in words): dose dependent inhibition; also recorded: inhibit IL-1β production; inhibition of IL-1β secretion/production after oral (PO) administration ([2]; LPS-challenged mice, oral gavage, 50 mg/kg, result in words): inhibited IL-1β secretion; also recorded: inhibit IL-1β production; inhibition at 50 mg/kg ([2]; Mus musculus, 1 h, LPS challenged mice, 50 mg/kg, administered −1 h relative to time of LPS challenge): 44%; ED50 ([2]; Mus musculus, CD1 mice, LPS 20 mg/kg IP, compound IP one hour after LPS, blood seven hours after LPS, read-out: ED50, inhibition of IL-1β secretion): ~15 mg/kg; mean plasma level at 90 and 120 minutes ([1]; male CD-1 mice, i.v. tail vein): < 2 µg/mL; concentration at 2 min ([1]; mouse, plasma, iv, male CD-1 mice, i.v. tail vein, read-out: mean plasma level at 2 minutes): 70 µg/mL
